Measurements published in patent US6342508B1, “N-hydroxy-2-(Alkyl,Aryl or Heteroaryl sulfanyl, sulfinyl or sulfonyl) 3-substituted alkyl, aryl or heteroarylamides as matrix metalloproteinase inhibitors” (American Cyanamid Company, priority 1997, dated 2002).

melting point [°C]	SMILES
58	COc1ccc(S(=O)(=O)C(C)(CC2CCCCC2)C(=O)NO)cc1 (centres unmarked) [Example 16, 3-Cyclohexyl-N-hydroxy-2-(4-methoxy-benzenesulfonyl)-2-methyl-propionamide]
68	COc1ccc(S(=O)(=O)C(C)(Cc2ccc(OCCN3CCCCCC3)cc2)C(=O)NO)cc1 (centres unmarked) [Example 18]
85	CCCC(Cc1ccc(OCCN2CCCCCC2)cc1)(C(=O)NO)S(=O)(=O)c1ccc(OC)cc1 (centres unmarked) [Example 19, 2-[4-(2-Azepan-1-yl-ethoxy)-benzyl]-2-(4-methoxy-benzenesulfonyl)-pentanoic acid hydroxyamide]
74	COc1ccc(S(=O)(=O)C(C)(Cc2cccc(OCCN3CCCCC3)c2)C(=O)NO)cc1 (centres unmarked) [Example 22, N-Hydroxy-2-(4-methoxy-benzenesulfonyl)-2-methyl-3-[3-(2-piperidin-1-yl-ethoxy)-phenyl]-propionamide]
67	CCCCC(Cc1ccc(OCCN(CC)CC)cc1)(C(=O)NO)S(=O)(=O)c1ccc(OC)cc1 (centres unmarked) [Example 27, 2-[4-(2-Diethylamino-ethoxy)-benzyl]-2-(4-methoxy-benzenesulfonyl)-hexanoic acid hydroxyamide]
63	COc1ccc(S(=O)(=O)C(C)(Cc2cccc(OCCN3CCOCC3)c2)C(=O)NO)cc1 (centres unmarked) [Example 30, N-Hydroxy-2-(4-methoxy-benzenesulfonyl)-2-methyl-3-[3-(2-morpholin-1-yl-ethoxy)-phenyl]-propionamide]
146 to 148	COc1ccc(S(=O)(=O)C(C)(CCCCN2C(=O)c3ccccc3C2=O)C(=O)NO)cc1 (centres unmarked) [Example 31, 6-(1,3-Dioxo-1,3-dihydro-isoindol-2-yl)-2(4-methoxy-benzenesulfonyl)-2-methyl-hexanoic acid hydroxyamide]
51	CCC(Cc1ccc(OCCN2CCOCC2)cc1)(C(=O)NO)S(=O)(=O)c1ccc(OC)cc1 (centres unmarked) [Example 33, N-Hydroxy-2-(4-methoxy-benzenesulfonyl)-2-[4-(2-morpholin-4yl-ethoxy)-benzyl]-butyramide]
75	CCC(Cc1ccc(OCCN2CCCCC2)cc1)(C(=O)NO)S(=O)(=O)c1ccc(OC)cc1 (centres unmarked) [Example 34, N-Hydroxy-2-(4-methoxy-benzenesulfonyl)-2-[4-(2-piperdin-1-yl-ethoxy)-benzyl]-butyramide]
65	CCCCCCC(Cc1ccc(OCCN2CCCCCC2)cc1)(C(=O)NO)S(=O)(=O)c1ccc(OC)cc1 (centres unmarked) [Example 36, 2-[4-(2-Azepan-1-yl-ethoxy)-benzyl]-2-(4-Methoxy-benzenesulfonyl)-octanoic acid hydroxyamide]
58	CCCCCCC(Sc1ccc(F)cc1)C(=O)NO (centres unmarked) [Example 38, 2-(4-Fluoro-phenylsulfanyl)-octanoic acid hydroxyamide]
161 to 163	COc1ccc(S(=O)(=O)C(Cc2ccc3ccccc3c2)C(=O)NO)cc1 (centres unmarked) [Example 40, N-Hydroxy-2-(4-methoxy-benzenesulfonyl)-3-naphthalen-2-yl-propionamide]
112	Cn1ccnc1S(=O)(=O)C(C)(Cc1ccc(-c2ccccc2)cc1)C(=O)NO (centres unmarked) [Example 47, 3-Biphenyl-4-yl-2-methyl-2-(1-methyl-1H-imidazole-2-sulfonyl)-propionic acid hydroxyamide]
86 to 88	COc1ccc(S(=O)(=O)C(C)(Cc2ccc(Br)cc2)C(=O)NO)cc1 (centres unmarked) [Example 51, 3-(4-Bromo-phenyl)-N-hydroxy-2-(4-methoxy-benzenesulfonyl)-2-methyl-propionamide]
185 to 187	COc1ccc(S(=O)(=O)C(C)(Cc2ccc3ccccc3c2)C(=O)NO)cc1 (centres unmarked) [Example 52, N-hydroxy-2-(4-methoxy-benzenesulfonyl)-2-methyl-3-naphthalen-2-yl-propionamide]
220	COc1ccc(S(=O)(=O)C(C(=O)NO)C(C)C)cc1 (centres unmarked) [Example 53, N-Hydroxy-2-(4methoxy-benzenesulfonyl)-3-methyl-butyramide]
89 to 91	COc1ccc(S(=O)(=O)C2(C(=O)NO)CCCC2)cc1 [Example 54, 1-(4-Methoxy-benzenesulfonyl)-cyclopentanecarboxylic acid hydroxyamide]
93 to 96	COc1ccc(S(=O)(=O)C(C)(Cc2ccccc2Br)C(=O)NO)cc1 (centres unmarked) [Example 55, 3-(2-Bromo-phenyl)-N-hydroxy-2-(4-methoxy-benzenesulfonyl)-2-methyl-propionamide]
162 to 164	COc1ccc(S(=O)(=O)C(C)(CC=Cc2ccccc2)C(=O)NO)cc1 (centres unmarked) [Example 56, 2-(4-methoxy-benzenesulfonyl)-2-methyl-5-phenyl-pent-4-enoic acid hydroxyamide]
118 to 120	COc1ccc(S(=O)(=O)C(CCCc2ccccc2)(CCCc2ccccc2)C(=O)NO)cc1 [Example 57, 2-(4methoxy-benzenesulfonyl)-5phenyl-2-(3-phenyl-propyl)-pentanoic acid hydroxyamide]
114 to 116	C=CCC(CC=C)(C(=O)NO)S(=O)(=O)c1ccc(OC)cc1 [Example 58, 2-allyl-2-(4-methoxy-benzenesulfonyl)-pent-4-enoic acid hydroxyamide]

melting point [°C]	SMILES
98	COc1ccc(S(=O)(=O)C(C)(Cc2cccnc2)C(=O)NO)cc1 (centres unmarked) [Example 61, N-hydroxy-2-(4-methoxy-benzenesulfonyl)-2-methyl-3-pyridin-3-yl-propionamide]
62	CCCCCCCCC(Cc1cccnc1)(C(=O)NO)S(=O)(=O)c1ccc(OC)cc1 (centres unmarked) [Example 62, 2-(4-Methoxy-benzenesulfonyl)-2-pyridin-3-ylmethyl-decanoic acid hydroxyamide]
89 to 92	COc1ccc(S(=O)(=O)C(CC=C(C)C)(Cc2cccnc2)C(=O)NO)cc1 (centres unmarked) [Example 63, 2-(4-Methoxy-benzenesulfonyl)-5-methyl-2-pyridin-3-ylmethyl-hex-4-enoic acid hydroxyamide]
206	COc1ccc(S(=O)(=O)C(C)(Cc2ccc3ncccc3c2)C(=O)NO)cc1 (centres unmarked) [Example 67, N-Hydroxy-2-(4-methoxy-benzensulfonyl)-2-methyl-3-quinolin-6-yl-propionamide]
68	COc1ccc(S(=O)(=O)C(CCCCOc2ccccc2)(Cc2cccnc2)C(=O)NO)cc1 (centres unmarked) [Example 68, 2-(4-Methoxy-benzenesulfonyl)-6-phenoxy-2-pyridin-3-ylmethyl-hexanoic acid hydroxyamide]
70	CCCCC(Cc1cccnc1)(C(=O)NO)S(=O)(=O)c1ccc(OC)cc1 (centres unmarked) [Example 70, 2-(4-Methoxy-benzenesulfonyl)-2-pyridin-3-ylmethyl-hexanoic acid hydroxyamide]
83 to 84	CCCCCC#CCC(CC#CCCCCC)(C(=O)NO)S(=O)(=O)c1ccc(OC)cc1 [Example 71, 2-(4-methoxy-benzenesulfonyl)-2-oct-2-ynyl-dec-4-ynoic acid hydroxyamide]
141 to 143	CC#CCC(CC#CC)(C(=O)NO)S(=O)(=O)c1ccc(OC)cc1 [Example 72, 2-(4-Methoxy-benzenesulfonyl)-2-but-2-ynyl-hex-4-ynoic acid hydroxyamide]
156	C#CCC(CC#C)(C(=O)NO)S(=O)(=O)c1ccc(OC)cc1 [Example 73, 2-(4-Methoxy-benzenesulfonyl)-2-prop-2-ynyl-pent-4-ynoic acid hydroxyamide]
119 to 121	C#CCC(Cc1cccnc1)(C(=O)NO)S(=O)(=O)c1ccc(OC)cc1 (centres unmarked) [Example 75, 2-(4-Methoxy-benzenesulfonyl)-2-pyridin-3-ylmethyl-pent-4-ynoic acid hydroxyamide]
161 to 163	CC#CCC(CC#CC)(C(=O)NO)S(=O)(=O)c1ccc(F)cc1 [Example 78, 2-(4-Fluoro-benzenesulfonyl)-2-but-2-ynyl-hex-4-ynoic acid hydroxyamide]
93 to 96	COc1ccc(S(=O)(=O)C(CC=C(C)C)(CC=C(C)C)C(=O)NO)cc1 [Example 79, 2-(4-Methoxy-benzenesulfonyl)-5-methyl-2-(3-methyl-but-2-enyl)-hex-4-enoic acid hydroxyamide]
90 to 95	CCCCCC(Sc1ccc(OC)cc1)C(=O)NO (centres unmarked) [Example 80, 2-(4methoxy-phenylsulfanyl)-heptanoic acid hydroxyamide]
130	COc1ccc(S(=O)(=O)C2(C(=O)NO)CCN(Cc3cccc(OC)c3)CC2)cc1 [Example 84, 4-(4-methoxy-benzenesulfonyl)-1-(3-methoxy-benzyl)-piperidine-4-carboxylic acid hydroxyamide]
192 to 195	COc1ccc(S(=O)(=O)C2(C(=O)NO)CCN(Cc3ccc(Cl)c(Cl)c3)CC2)cc1 [Example 85, 1-(3,4-dichlorobenzyl)-4-(4-methoxy-benzenesulfonyl)-piperidine-4-carboxylic acid hydroxamide]
176 to 177	COc1ccc(S(=O)(=O)C2(C(=O)NO)CCN(Cc3ccc(C)cc3)CC2)cc1 [Example 86, 4-(4-methoxy-benzenesulfonyl)-1-(4-methylbenzyl)-piperidine-4-carboxylic acid hydroxamide]
143	COc1ccc(S(=O)(=O)C2(C(=O)NO)CCN(CCCc3ccccc3)CC2)cc1 [Example 91, 4-(4-methoxy-benzenesulfonyl)-1-(3-phenyl-propyl)-piperidine-4-carboxylic acid hydroxyamide]
75	CCCCN1CCC(C(=O)NO)(S(=O)(=O)c2ccc(OC)cc2)CC1 [Example 93, 1-Butyl-4-(4-methoxy-benzenesulfonyl)-piperidine-4-carboxylic acid hydroxyamide]
85	CCN1CCC(C(=O)NO)(S(=O)(=O)c2ccc(OC)cc2)CC1 [Example 95, 1-Ethyl-4-(4-methoxy-benzenesulfonyl)-piperidine-4-carboxylic acid hydroxyamide]
89	COc1ccc(S(=O)(=O)C2(C(=O)NO)CCN(C)CC2)cc1 [Example 97, 1-Methyl-4-(4-methoxy-benzenesulfonyl)-piperidine-4-carboxylic acid hydroxyamide]
